The source of these data is patent publication US7144880B2, “Compositions relating to novel compounds and targets thereof” (Regents of the University of Michigan, priority 2003, dated 2006).

Assay [1] has as its system ornithine decarboxylase (ODC). In words: ODC activity in treated cells, conversion of 3H-ornithine to putrescine. The conditions noted are these: cells treated 4 h. In kind it is cell-based. On the procedure:
In these experiments, the conversion of ornithine to putrescine was quantified using ^3H-ornithine. For comparisons, control cells were treated with vehicle control or difluoromethyl ornithine (DFMO), a potent inhibitor of ornithine decarboxylase (like Bz-423, DFMO is a potent anti-proliferative agent). […] The reduction in ODC activity was paralleled by a decrease in ODC protein levels measured under the same conditions.
As described above, Bz-423 induced apoptosis was signaled by an ROS response that arose from MRC complex III as a result of the state 3 to 4 transition. It was next sought to determine if the ROS response, critical for apoptosis, also mediated these effects on ODC. If the ROS was required for the decrease in ODC activity, it would likewise be implicated as potentially part of the anti-proliferative response to Bz-423. To test this, Ramos cells were treated with Bz-423, DFMO, or vehicle control for 4 h. In parallel, a second group of cells was pre-incubated with MnTBAP to limit the ROS and then cultured with Bz-423, DFMO, and vehicle control.

Assay [2] concerns isolated rat liver mitochondria. Description: ROS production in isolated mitochondria (DCFH oxidation to DCF). The assay is classed as biochemical. Here is the method: Male Long Evans rats are starved overnight and sacrificed by decapitation. Liver samples are homogenized in ice cold buffer A (250 mM sucrose, 10 mM Tris, 0.1 mM EGTA, pH 7.4), and nuclei and cellular debris are pelleted (10 min, 830 g, 4° C.). Mitochondria are collected by centrifugation (10 min, 15,000 g, 4° C.), and the supernatant is collected as the S15 fraction. The mitochondrial pellet is washed three times with buffer B (250 mM sucrose, 10 mM Tris, pH 7.4), and re-suspended in buffer B at 20–30 mg/mL. Mitochondria are diluted (0.5 mg/mL) in buffer C (200 mM sucrose, 10 mM Tris, pH 7.4, 1 mM KH2PO4, 10 μM EGTA, 2.5 μM rotenone, 5 mM succinate) containing 2′,7′-dichlorodihydrofluorescin diacetate (DCFH-DA, 1 μM). For state 3 measurements, ADP (2 mM) is included in the buffer, and prior to the addition of Bz-423, mitochondria are allowed to charge for 2 min. To induce state 4, oligomycin (10 μM) is added to buffer C. […] To detect effects on O2^− and delta ψm, mitochondria are incubated for 15 min at 37° C. in buffer C with vehicle, Bz-423, or CCCP containing DHE (5 μM) or DIOC6(3) (20 nM), and aliquots are removed for analysis by fluorescence microscopy.
O2^− production by Bz-423 may result from binding to a protein within mitochondria or a target in another compartment that signals mitochondria to generate ROS. To distinguish between these alternatives, isolated rat liver mitochondria were assayed for ROS production by monitoring the oxidation of 2′,7′-dichlorodihydrofluorescin diacetate to of 2′,7′-dichlorofluorescin in the presence and absence of Bz-423. In this assay, the rate of DCF production increased after a lag period during which endogenous reducing equivalents were consumed and the acetate moieties on the probe were hydrolyzed to yield 2′,7′-dichlorodihydrofluorescin, the redox-active species.

The target in assay [3] is T1, mitochondrial F1F0-ATPase (Bos taurus, UniProt P13621).
T1 construct: from tissue
Description: ATPase activity in sub-mitochondrial particles (SMPs). In kind it is biochemical, bovine. The conditions noted are these: bovine SMPs; read-out: ED50, inhibition of mitochondrial ATPase activity. From the text:
Oligomycin, a macrolide natural product that binds to the mitochondrial F1F0-ATPase, induces a state 3 to 4 transition and generates O2^− like Bz-423. Based on these similarities, it is possible that the F1F0-ATPase is also the molecular target for Bz-423. To test this hypothesis, the effect of Bz-423 on ATPase activity in sub-mitochondrial particles (SMPs) was examined.
>40 derivatives of Bz-423 were developed to determine the elements on this novel agent required for biological activity. […] The potency of these analogues in cell based assays correlated with the ED50 values in ATPase inhibition experiments using SMPs.

Assay [4] has as its system Ramos cells. In words: Gene expression profiling (Affymetrix U133A) of treated cells. The assay is classed as cell-based, human. To be noted: versus control cells. On the procedure: In vitro testing with Ramos cells to determine the changes in gene expression (at the level of mRNA) induced by Bz-423 was performed by culturing cells at a density of 500,000 cells per ml. Solvent control (DMSO, final concentration 0.1% V/V]), Bz-423, or Bz-OMe (10 μM) was added to cells. After 4 h, cells were harvested and RNA prepared using Trizol Reagent (#15596-018, Life Technologies, Rockville, Md.) and the RNeasy Maxi Kit (# 75162, Qiagen, Valencia, Calif.) according to manufacturers protocols. Single stranded cDNA was synthesized by reverse transcription using poly (A) RNA present in the starting total RNA sample. Single stranded cDNA was converted into double stranded cDNA and then in vitro transcription carried out in the presence of biotinylated UTP and CTP to produce biotin-labeled cRNA. cRNA was fragmented in the presence of Mg2+, and hybridized to the human genome U133A Genechip array (Affymetrix). Hybridization results were quantified using a GeneArray scanner and analysis carried out according to the instructions provided by Affymetrix. […]
The data were analyzed to detect genes changes Bz treatment according to the criteria that the log-transformed mean signal changed at least four-fold in treated compared to vehicle control samples and that the coefficient of variance for control values (n=4) was less than 10%. […]

Assay [5] deals with B cells. Description: Collapse of mitochondrial ΔΨm detected with DiOC6(3). The conditions noted are these: by 5 hours. In kind it is cell-based. Here is the method:
To detect O2^−, cells are incubated with DHE (10 μM) for 30 min at 37° C. and are analyzed by flow cytometry to measure ethidium fluorescence. Flow analysis of mitochondrial transmembrane potential (ψm) is conducted by labeling cells with DiOC6(3) (20 nM) for 15 min at 37 degrees C. A positive control for disruption of ψm is established using carbonyl cyanide m-chlorophenylhydrazone (CCCP, 50 μM). Caspase activation assays are performed with FAM-VAD-fluoromethylketone. Processing of the substrate is evaluated by flow cytometry.
To characterize the death mechanism engaged by Bz-423, intracellular ROS, ΔΨm, cytochrome c release, caspase activation, and DNA fragmentation were measured over time (the results presented are for B cells but do characterize the response in many different cell types). The first event detected after exposure to Bz-423 is an increase in the fraction of cells that stain with dihyroethedium (DHE), a redox-sensitive agent that reacts specifically with O2^−.
Collapse of ΔΨm was detected using DiOC6(3), a mitochondria-selective potentiometric probe.

As for `CN1C(=O)C(Cc2ccc3ccccc3c2)N=C(c2ccc(O)cc2)c2cc(Cl)ccc21` (stereo not drawn) [Bz-423], in assay [1], the “Effect on ODC activity” value is given as “significantly reduced ODC activity”. Besides, the “Increase in rate of ROS production versus control” value in assay [2] (state 3 respiration, aerobic, after induction phase, slopes compared to control) is listed as “nearly two-fold”. In assay [2] (state 4 respiration), the “ROS production in state 4 mitochondria” value was “does not stimulate ROS”. Moreover, the EC50 in assay [3] is around 5 µM. In addition, in assay [4], the “Induction of MIF expression” value was “approximately 10 fold”. Besides, the “Cells with collapse of ΔΨm” value in assay [5] is above 90%.
